Reference: BigSolDB 2.1

CCCCCCCCCCCCCCCCOc1nc2ccc(C)cc2c(=O)o1
solubility (mole fraction)
Settings	278.15 K	283.15 K	288.15 K	293.15 K	298.15 K	303.15 K	308.15 K	313.15 K	318.15 K	323.15 K
in acetone	0.0814	0.0965	0.114	0.133	0.157	0.18	0.208	0.245	0.284	0.327
in acetonitrile	0.0619	0.0759	0.089	0.106	0.123	0.144	0.167	0.191	0.222	0.259
in isopropanol	0.0702	0.0829	0.0979	0.116	0.137	0.158	0.181	0.207	0.241	0.28
